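All cell lines were grown in 96-well plates and treated with compound for 48 hours. The concentration for full growth arrest is given as TGI.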
Tests used:
Assay in all cases: NCI anticancer screen, dose series, 48 h
UO-31 renal = tested on: UO-31 renal
EKVX NSCLC = tested on: EKVX NSCLC
HL-60(TB) leukemia = tested on: HL-60(TB) leukemia
SNB-75 CNS = tested on: SNB-75 CNS
OVCAR-8 ovarian = tested on: OVCAR-8 ovarian
OVCAR-3 ovarian = tested on: OVCAR-3 ovarian
SK-MEL-2 melanoma = tested on: SK-MEL-2 melanoma
MCF7 breast = tested on: MCF7 breast
MOLT-4 leukemia = tested on: MOLT-4 leukemia
SR leukemia = tested on: SR leukemia

Row | Structure (SMILES) | TGI (UO-31 renal) [µM] | TGI (EKVX NSCLC) [µM] | TGI (HL-60(TB) leukemia) [µM] | TGI (SNB-75 CNS) [µM] | TGI (OVCAR-8 ovarian) [µM] | TGI (OVCAR-3 ovarian) [µM] | TGI (SK-MEL-2 melanoma) [µM] | TGI (MCF7 breast) [µM] | TGI (MOLT-4 leukemia) [µM] | TGI (SR leukemia) [µM]
1 | C=C(C1=CC(=O)C(C)(C)O1)[C@@H]1CC=C([C@@H]2CC[C@H]3[C@@]2(C)CC[C@H]2C(C)(C)C(=O)[C@H](O)C[C@]32C)[C@H](O)O1 | 2.88 | 22.2 | 8.11 | 25.1 | 4.75 | 2.4 | 5.56 | 1.61 | 3.96 | 
2 | CCOC(=O)Nn1c(C)nnc1-c1ccccc1 | > 100 | > 100 |  |  | > 100 | > 100 | > 100 | > 100 | > 100 | > 100
3 | O=C(Cc1cccs1)N[C@@H]1C(=O)N2C(C(=O)OC(c3ccccc3)c3ccccc3)=C(CO)CS[C@H]12 | > 100 | > 100 | > 100 |  | > 100 | > 100 | > 100 | > 100 | > 100 | > 100
4 | Oc1cc2c3c(c1)c1cc4c(cc1c[n+]3CC2)OCO4 | > 100 | > 76.6 | > 27.3 | 26.3 | 14.1 | > 50.9 | > 84.5 | > 100 |  | 
5 | O=C1C(=Cc2ccc(O)cc2)N=C(c2ccccc2)N1n1c(-c2ccccc2)nc2ccccc2c1=O | > 100 | > 100 | > 100 | > 100 | > 100 |  |  | > 100 | > 100 | 
6 | COc1ccc2c(=O)c(O)c(-c3ccc(OC)c(OC)c3)oc2c1 | > 100 | > 100 | 5.22 |  | > 100 | 11.9 |  | > 100 | > 100 | > 100
7 | C[n+]1c2ccccc2c(/C=N\NS(=O)(=O)c2ccc(O)c(C(=O)O)c2)c2ccccc21 | > 100 | > 100 | 84.2 | > 100 | > 100 | > 100 | > 100 |  | 62 | 
8 | CNC(=O)C(C)C1CCC2(C)C=CC(=O)C(C)=C2C1O (stereo unspecified) | > 68.3 | > 100 | > 100 | > 100 | > 87.9 | > 100 | > 100 | > 100 | > 100 | 
9 | Cc1nc(C(N)=S)sc1/C(CC(=O)C(=O)Nc1cccc2ccc(O)cc12)=N\NC(=O)c1ccncc1 | > 100 | > 100 | > 100 | > 100 | > 100 | > 100 | > 100 | > 100 | 74.3 | 
10 | O=C1c2ccccc2C2C1N2C(=O)C(F)(F)F (stereo unspecified) | > 100 | > 100 | 91.5 | > 100 | > 100 | > 100 | > 100 |  | > 100 | > 100
11 | CCN(CC)CCC(=O)Nc1ccc2c(c1)C(=O)c1ccc(NC(=O)CCN(CC)CC)cc1C2=O | > 100 | 15.1 | 16.7 | 31.9 | 18 |  | 19 |  | 12.2 | 14.5
12 | CC(N)Cc1ccc(C(=O)Cl)cc1 (stereo unspecified) |  | > 100 |  | > 100 | > 100 | > 100 | > 100 |  | > 100 | 
13 | O=C(O)CN(CC(=O)O)C1CCCCC1N(CC(=O)O)CC(=O)NCCN=C=S (stereo unspecified) | > 100 | > 100 | > 100 |  | > 100 | > 100 | > 100 | > 100 | > 100 | 
14 | Cc1ccsc1/C=N/Nc1ncccn1 | > 100 | > 100 | > 100 | > 100 | > 100 | > 100 | > 100 | > 100 | > 100 | 
15 | O=S1(=O)NC(=NCc2c[nH]c3ccccc23)N(c2ccccc2)c2ccncc21 | > 100 | > 100 | > 100 | 43.3 | > 100 | > 100 | > 100 | > 100 | > 100 | 
16 | O=C1CCC23CC(C=CC=C12)n1c(=O)n(-c2ccccc2)c(=O)n13 (stereo unspecified) | > 100 | > 100 | > 80.5 | > 100 | > 100 | > 100 | > 100 | 32.3 | > 100 | 
17 | Cc1cn(C2CC(n3cc(Cn4cc(I)c(=O)[nH]c4=O)nn3)C(CO)O2)c(=O)[nH]c1=O (stereo unspecified) |  |  |  | > 100 | > 100 | > 100 | > 100 | > 100 | > 100 | 
18 | O=C(Nc1ccc(C2=NCCN2)cc1)c1cncc(C(=O)Nc2ccc(C3=NCCN3)cc2)c1 | > 100 | > 100 | > 100 | > 31.6 | > 100 | > 100 | > 100 | > 100 | > 100 | 
19 | [N-]=[N+]=Nc1cc(=O)oc2ccccc12 | > 100 |  | > 100 | > 100 | > 100 |  | > 100 |  | > 100 | > 100
20 | CCC12C=CCN3CCC4(C(=C(C(=O)OC)[C@@H]1O)Nc1ccccc14)C32 (stereo partly specified) | 6.49 | 3.92 | 4.98 | 5.8 | 5.33 | 3.89 | 3.84 |  | 11.7 | 4.58
21 | O=[N+]([O-])/C(C(Cl)=C(Cl)Cl)=C(\SCc1ccccc1)N1CCCCC1 | 56.5 | > 100 | 29.6 |  | 54.5 | 34.6 | 55 | 32.2 | 41.1 | > 100
22 | CCC1(O)CC2CC(=O)OC2C1O (stereo unspecified) | > 100 | > 100 |  | > 100 | > 100 | > 100 | > 100 | > 100 | > 100 | > 100
23 | COc1cc2c(cc1OC)C(c1ccccc1CCCCl)=NCC2 | > 100 | > 100 | > 100 | > 100 | > 100 | > 100 | > 100 | > 100 | > 100 | 

— PubChem BioAssay (NCI)
